Literature values, collected in patent publication EP0409903B1, “PROCESS FOR PREPARING POLYUNSATURATED FATTY ACIDS” (STAROIL LIMITED, priority 1988, dated 1989).

Conditions: ingestion of DHA in ester form and/or as the free acid; Hiroi at al., 1978

Compound: CC/C=C\C/C=C\C/C=C\C/C=C\C/C=C\C/C=C\CCC(=O)O [DHA, docosahexaenoic acid]
- DHA and EPA levels in plasmatic phospholipids: significantly increases
